{"source": "paper PMC11871066", "about": "“Structure-based discovery of hydrocarbon-stapled paxillin peptides that block FAK scaffolding in cancer” (Nature Communications, 2025)", "experiment_in_all_cases": "Eurofins KINOMEscan profiling, 97 kinases", "key": {"[1]": {"target": "97 kinases (kinase named in endpoint) (Homo sapiens, UniProt O14965)", "conditions": "read-out: % Ctrl, AURKA"}, "[2]": {"target": "97 kinases (kinase named in endpoint) (Homo sapiens, UniProt O15530)", "conditions": "read-out: % Ctrl, PDPK1"}, "[3]": {"target": "97 kinases (kinase named in endpoint) (Homo sapiens, UniProt P04626)", "sequence (P04626 23-1255)": "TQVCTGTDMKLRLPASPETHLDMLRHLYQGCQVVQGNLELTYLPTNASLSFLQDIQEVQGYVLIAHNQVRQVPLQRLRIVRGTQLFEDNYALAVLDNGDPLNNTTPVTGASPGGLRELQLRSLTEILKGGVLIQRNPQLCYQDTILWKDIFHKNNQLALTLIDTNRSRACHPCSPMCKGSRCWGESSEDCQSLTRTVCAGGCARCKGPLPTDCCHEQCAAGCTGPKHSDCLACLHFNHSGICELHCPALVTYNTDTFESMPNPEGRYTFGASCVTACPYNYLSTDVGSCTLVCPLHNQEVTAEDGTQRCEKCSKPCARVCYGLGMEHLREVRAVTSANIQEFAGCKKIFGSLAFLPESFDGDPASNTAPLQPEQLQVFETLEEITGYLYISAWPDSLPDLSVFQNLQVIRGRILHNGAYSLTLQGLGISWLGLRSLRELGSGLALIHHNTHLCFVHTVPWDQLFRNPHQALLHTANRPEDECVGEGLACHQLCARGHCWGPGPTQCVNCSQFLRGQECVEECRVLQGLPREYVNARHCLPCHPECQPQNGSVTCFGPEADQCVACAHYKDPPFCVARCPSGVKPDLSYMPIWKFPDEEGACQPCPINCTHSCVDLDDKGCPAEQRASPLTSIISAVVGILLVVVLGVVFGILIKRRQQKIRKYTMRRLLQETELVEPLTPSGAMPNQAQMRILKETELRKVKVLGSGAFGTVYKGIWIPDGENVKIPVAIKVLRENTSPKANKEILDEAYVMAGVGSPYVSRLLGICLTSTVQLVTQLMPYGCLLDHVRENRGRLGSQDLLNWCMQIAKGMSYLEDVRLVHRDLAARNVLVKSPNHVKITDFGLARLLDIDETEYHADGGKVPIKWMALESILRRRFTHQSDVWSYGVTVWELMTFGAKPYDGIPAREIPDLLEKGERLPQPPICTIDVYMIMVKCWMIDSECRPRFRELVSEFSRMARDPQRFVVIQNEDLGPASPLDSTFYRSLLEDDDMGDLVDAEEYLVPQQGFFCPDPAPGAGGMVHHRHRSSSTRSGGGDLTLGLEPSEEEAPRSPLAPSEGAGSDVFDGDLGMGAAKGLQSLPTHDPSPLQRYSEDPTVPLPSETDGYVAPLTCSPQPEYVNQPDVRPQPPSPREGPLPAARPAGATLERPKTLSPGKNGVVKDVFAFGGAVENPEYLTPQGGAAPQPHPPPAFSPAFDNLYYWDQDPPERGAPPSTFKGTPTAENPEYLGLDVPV", "conditions": "read-out: % Ctrl, ERBB2"}, "[4]": {"target": "97 kinases (kinase named in endpoint) (Homo sapiens, UniProt P04629)", "conditions": "read-out: % Ctrl, TRKA"}, "[5]": {"target": "97 kinases (kinase named in endpoint) (Homo sapiens, UniProt P07949)", "conditions": "read-out: % Ctrl, RET"}, "[6]": {"target": "97 kinases (kinase named in endpoint) (Homo sapiens, UniProt P09619)", "sequence (P09619 33-1106)": "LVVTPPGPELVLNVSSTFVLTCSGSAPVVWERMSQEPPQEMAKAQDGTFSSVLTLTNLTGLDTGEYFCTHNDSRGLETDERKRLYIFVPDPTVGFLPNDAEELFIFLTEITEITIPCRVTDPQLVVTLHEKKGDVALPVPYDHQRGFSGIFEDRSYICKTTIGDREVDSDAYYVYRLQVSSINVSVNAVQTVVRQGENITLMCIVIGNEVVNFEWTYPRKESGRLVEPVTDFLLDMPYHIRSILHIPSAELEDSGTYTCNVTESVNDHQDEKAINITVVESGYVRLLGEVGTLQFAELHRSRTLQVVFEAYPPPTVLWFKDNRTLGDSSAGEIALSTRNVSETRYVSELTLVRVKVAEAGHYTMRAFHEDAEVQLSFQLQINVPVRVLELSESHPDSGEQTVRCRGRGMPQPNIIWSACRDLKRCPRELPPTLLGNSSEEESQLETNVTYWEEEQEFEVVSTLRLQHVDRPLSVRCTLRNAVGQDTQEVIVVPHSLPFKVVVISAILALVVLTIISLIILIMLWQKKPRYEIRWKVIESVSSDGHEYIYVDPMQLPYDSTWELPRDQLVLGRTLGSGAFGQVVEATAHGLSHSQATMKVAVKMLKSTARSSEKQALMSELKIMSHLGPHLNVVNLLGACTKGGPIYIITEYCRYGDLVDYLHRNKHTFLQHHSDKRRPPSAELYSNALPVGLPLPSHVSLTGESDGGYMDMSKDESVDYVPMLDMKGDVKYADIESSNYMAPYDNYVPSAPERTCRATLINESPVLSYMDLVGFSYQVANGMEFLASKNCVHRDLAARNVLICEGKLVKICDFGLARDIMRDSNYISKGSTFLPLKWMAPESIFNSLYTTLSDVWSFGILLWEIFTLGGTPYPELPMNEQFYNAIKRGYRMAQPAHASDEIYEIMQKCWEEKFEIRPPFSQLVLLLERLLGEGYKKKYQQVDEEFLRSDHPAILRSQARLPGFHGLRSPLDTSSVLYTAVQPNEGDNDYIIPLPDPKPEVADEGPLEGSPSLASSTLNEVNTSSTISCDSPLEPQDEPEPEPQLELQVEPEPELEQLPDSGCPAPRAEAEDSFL", "conditions": "read-out: % Ctrl, PDGFRB"}, "[7]": {"target": "97 kinases (kinase named in endpoint) (Homo sapiens, UniProt P11309)", "conditions": "read-out: % Ctrl, PIM1"}, "[8]": {"target": "97 kinases (kinase named in endpoint) (Homo sapiens, UniProt P15056, V600E)", "conditions": "read-out: % Ctrl, BRAF(V600E)"}, "[9]": {"target": "97 kinases (kinase named in endpoint) (Homo sapiens, UniProt P21802)", "conditions": "read-out: % Ctrl, FGFR2"}, "[10]": {"target": "97 kinases (kinase named in endpoint) (Homo sapiens, UniProt P29317)", "conditions": "read-out: % Ctrl, EPHA2"}, "[11]": {"target": "97 kinases (kinase named in endpoint) (Homo sapiens, UniProt P36507)", "conditions": "read-out: % Ctrl, MEK2"}, "[12]": {"target": "97 kinases (kinase named in endpoint) (Homo sapiens, UniProt P48730)", "conditions": "read-out: % Ctrl, CSNK1D"}, "[13]": {"target": "97 kinases (kinase named in endpoint) (Homo sapiens, UniProt P49841)", "conditions": "read-out: % Ctrl, GSK3B"}, "[14]": {"target": "97 kinases (kinase named in endpoint) (Homo sapiens, UniProt P51812)", "conditions": "read-out: % Ctrl, RSK2(Kin.Dom.1-N-terminal)"}, "[15]": {"target": "97 kinases (kinase named in endpoint) (Homo sapiens, UniProt P52333)", "conditions": "read-out: % Ctrl, JAK3(JH1domain-catalytic)"}, "[16]": {"target": "97 kinases (kinase named in endpoint) (Homo sapiens, UniProt P53350)", "sequence (P53350 whole entry)": "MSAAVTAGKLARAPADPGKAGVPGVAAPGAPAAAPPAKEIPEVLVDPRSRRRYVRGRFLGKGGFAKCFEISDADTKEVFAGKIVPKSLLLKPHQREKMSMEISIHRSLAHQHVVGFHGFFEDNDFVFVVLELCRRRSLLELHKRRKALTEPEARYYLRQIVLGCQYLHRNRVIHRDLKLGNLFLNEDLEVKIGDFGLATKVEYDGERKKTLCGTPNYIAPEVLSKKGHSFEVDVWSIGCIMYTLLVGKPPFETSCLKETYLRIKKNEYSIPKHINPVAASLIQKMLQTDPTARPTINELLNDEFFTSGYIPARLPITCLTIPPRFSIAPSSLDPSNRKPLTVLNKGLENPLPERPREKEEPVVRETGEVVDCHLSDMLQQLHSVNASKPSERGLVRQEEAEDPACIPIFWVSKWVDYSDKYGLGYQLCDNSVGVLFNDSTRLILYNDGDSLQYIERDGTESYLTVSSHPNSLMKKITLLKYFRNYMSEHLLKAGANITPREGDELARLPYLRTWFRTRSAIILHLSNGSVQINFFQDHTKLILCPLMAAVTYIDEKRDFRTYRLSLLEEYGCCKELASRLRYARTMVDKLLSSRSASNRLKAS", "conditions": "read-out: % Ctrl, PLK1"}, "[17]": {"target": "97 kinases (kinase named in endpoint) (Homo sapiens, UniProt P78368)", "sequence (P78368 whole entry)": "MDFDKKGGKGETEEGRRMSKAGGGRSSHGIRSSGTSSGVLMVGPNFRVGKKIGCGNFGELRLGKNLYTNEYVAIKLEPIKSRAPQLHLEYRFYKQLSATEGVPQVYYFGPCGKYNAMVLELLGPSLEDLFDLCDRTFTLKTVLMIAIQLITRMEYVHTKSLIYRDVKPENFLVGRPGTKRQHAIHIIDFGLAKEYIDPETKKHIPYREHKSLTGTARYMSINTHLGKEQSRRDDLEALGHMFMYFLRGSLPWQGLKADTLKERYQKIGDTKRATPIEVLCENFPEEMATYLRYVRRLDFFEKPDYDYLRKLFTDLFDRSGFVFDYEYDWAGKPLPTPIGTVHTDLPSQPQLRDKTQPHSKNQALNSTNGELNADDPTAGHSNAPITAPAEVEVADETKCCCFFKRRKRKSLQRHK", "conditions": "read-out: % Ctrl, CSNK1G2"}, "[18]": {"target": "97 kinases (kinase named in endpoint) (Homo sapiens, UniProt P80192)", "conditions": "read-out: % Ctrl, MLK1"}, "[19]": {"target": "97 kinases (kinase named in endpoint) (Homo sapiens, UniProt Q02763)", "conditions": "read-out: % Ctrl, TIE2"}, "[20]": {"target": "97 kinases (kinase named in endpoint) (Homo sapiens, UniProt Q15303)", "conditions": "read-out: % Ctrl, ERBB4"}, "[21]": {"target": "97 kinases (kinase named in endpoint) (Homo sapiens, UniProt Q15759)", "conditions": "read-out: % Ctrl, p38-beta"}, "[22]": {"target": "97 kinases (kinase named in endpoint) (Homo sapiens, UniProt Q16539)", "conditions": "read-out: % Ctrl, p38-alpha"}, "[23]": {"target": "97 kinases (kinase named in endpoint) (Homo sapiens, UniProt Q96GD4)", "conditions": "read-out: % Ctrl, AURKB"}, "[24]": {"target": "97 kinases (kinase named in endpoint) (Homo sapiens, UniProt Q9BWU1)", "conditions": "read-out: % Ctrl, CDK11"}, "[25]": {"target": "97 kinases (kinase named in endpoint) (Homo sapiens, UniProt Q9H4B4)", "sequence (Q9H4B4 whole entry)": "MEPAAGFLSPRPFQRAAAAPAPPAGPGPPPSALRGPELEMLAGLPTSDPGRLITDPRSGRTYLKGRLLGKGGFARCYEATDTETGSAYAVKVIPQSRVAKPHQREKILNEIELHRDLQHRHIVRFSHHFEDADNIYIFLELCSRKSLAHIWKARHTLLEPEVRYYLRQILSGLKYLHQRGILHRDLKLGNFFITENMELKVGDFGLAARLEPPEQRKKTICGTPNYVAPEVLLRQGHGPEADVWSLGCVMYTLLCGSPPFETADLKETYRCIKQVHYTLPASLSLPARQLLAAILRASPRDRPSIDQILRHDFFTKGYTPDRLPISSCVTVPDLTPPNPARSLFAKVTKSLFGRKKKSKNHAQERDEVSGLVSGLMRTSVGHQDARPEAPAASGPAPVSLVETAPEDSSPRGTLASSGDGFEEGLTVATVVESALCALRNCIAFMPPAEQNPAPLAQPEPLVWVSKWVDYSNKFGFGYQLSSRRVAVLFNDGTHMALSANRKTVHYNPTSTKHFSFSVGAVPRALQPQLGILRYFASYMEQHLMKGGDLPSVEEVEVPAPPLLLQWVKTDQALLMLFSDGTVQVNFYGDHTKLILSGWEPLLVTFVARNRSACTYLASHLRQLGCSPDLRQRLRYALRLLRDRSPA", "conditions": "read-out: % Ctrl, PLK3"}, "[26]": {"target": "97 kinases (kinase named in endpoint) (Homo sapiens, UniProt Q9HBH9)", "sequence (Q9HBH9 whole entry)": "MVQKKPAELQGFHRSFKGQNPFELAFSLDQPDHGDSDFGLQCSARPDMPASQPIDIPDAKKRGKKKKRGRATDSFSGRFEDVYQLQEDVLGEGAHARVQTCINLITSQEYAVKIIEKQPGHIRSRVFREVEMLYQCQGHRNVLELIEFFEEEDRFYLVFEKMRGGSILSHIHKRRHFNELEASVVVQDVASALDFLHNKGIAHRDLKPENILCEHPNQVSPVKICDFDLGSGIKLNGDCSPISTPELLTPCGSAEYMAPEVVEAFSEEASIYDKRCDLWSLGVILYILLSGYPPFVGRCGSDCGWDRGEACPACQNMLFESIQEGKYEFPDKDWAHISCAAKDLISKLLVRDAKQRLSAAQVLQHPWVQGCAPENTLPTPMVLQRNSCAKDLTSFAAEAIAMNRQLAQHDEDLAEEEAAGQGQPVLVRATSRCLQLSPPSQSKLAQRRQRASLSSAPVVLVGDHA", "conditions": "read-out: % Ctrl, MKNK2"}, "[27]": {"target": "97 kinases (kinase named in endpoint) (Homo sapiens, UniProt Q9P1W9)", "sequence (Q9P1W9 whole entry)": "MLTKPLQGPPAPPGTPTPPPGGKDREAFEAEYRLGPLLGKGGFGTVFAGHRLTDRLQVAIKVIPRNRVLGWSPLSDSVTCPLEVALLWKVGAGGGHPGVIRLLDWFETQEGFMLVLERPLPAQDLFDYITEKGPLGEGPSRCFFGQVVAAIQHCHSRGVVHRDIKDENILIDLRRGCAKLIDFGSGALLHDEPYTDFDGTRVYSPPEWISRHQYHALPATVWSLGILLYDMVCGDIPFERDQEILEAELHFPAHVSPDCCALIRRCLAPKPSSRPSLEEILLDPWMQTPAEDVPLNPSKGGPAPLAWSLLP", "conditions": "read-out: % Ctrl, PIM2"}, "[28]": {"target": "97 kinases (kinase named in endpoint) (Homo sapiens, UniProt Q9UM73)", "conditions": "read-out: % Ctrl, ALK"}}, "data": [{"smiles": "CCCCCCCCCCCCCC(=O)N[C@@H](CC(N)=O)C(=O)N[C@@H](CC(C)C)C(=O)N[C@]1(C)CCCCCCC=CCCC[C@@](C)(C(=O)N[C@@H](CCC(=O)O)C(=O)N[C@@H](CC(C)C)C(=O)N[C@@H](CC(N)=O)C(N)=O)NC(=O)[C@H](CC(C)C)NC(=O)[C@H](CC(C)C)NC(=O)[C@H](CCCNC(=N)N)NC(=O)[C@H](CC(=O)O)NC(=O)[C@H](CC(C)C)NC(=O)[C@H](CCC(=O)O)NC1=O", "note": "[compound 2012]", "values": [{"measurement": "remaining binding at 1 µM", "setting": "[1]", "value": 100, "unit": "%"}, {"measurement": "remaining binding at 1 µM", "setting": "[2]", "value": 99, "unit": "%"}, {"measurement": "remaining binding at 1 µM", "setting": "[3]", "value": 55, "unit": "%"}, {"measurement": "remaining binding at 1 µM", "setting": "[4]", "value": 100, "unit": "%"}, {"measurement": "remaining binding at 1 µM", "setting": "[5]", "value": 99, "unit": "%"}, {"measurement": "remaining binding at 1 µM", "setting": "[6]", "value": 94, "unit": "%"}, {"measurement": "remaining binding at 1 µM", "setting": "[7]", "value": 100, "unit": "%"}, {"measurement": "remaining binding at 1 µM", "setting": "[8]", "value": 100, "unit": "%"}, {"measurement": "remaining binding at 1 µM", "setting": "[9]", "value": 90, "unit": "%"}, {"measurement": "remaining binding at 1 µM", "setting": "[10]", "value": 98, "unit": "%"}, {"measurement": "remaining binding at 1 µM", "setting": "[11]", "value": 79, "unit": "%"}, {"measurement": "remaining binding at 1 µM", "setting": "[12]", "value": 97, "unit": "%"}, {"measurement": "remaining binding at 1 µM", "setting": "[13]", "value": 100, "unit": "%"}, {"measurement": "remaining binding at 1 µM", "setting": "[14]", "value": 100, "unit": "%"}, {"measurement": "remaining binding at 1 µM", "setting": "[15]", "value": 83, "unit": "%"}, {"measurement": "remaining binding at 1 µM", "setting": "[16]", "value": 89, "unit": "%"}, {"measurement": "remaining binding at 1 µM", "setting": "[17]", "value": 99, "unit": "%"}, {"measurement": "remaining binding at 1 µM", "setting": "[18]", "value": 100, "unit": "%"}, {"measurement": "remaining binding at 1 µM", "setting": "[19]", "value": 98, "unit": "%"}, {"measurement": "remaining binding at 1 µM", "setting": "[20]", "value": 83, "unit": "%"}, {"measurement": "remaining binding at 1 µM", "setting": "[21]", "value": 98, "unit": "%"}, {"measurement": "remaining binding at 1 µM", "setting": "[22]", "value": 98, "unit": "%"}, {"measurement": "remaining binding at 1 µM", "setting": "[23]", "value": 100, "unit": "%"}, {"measurement": "remaining binding at 1 µM", "setting": "[24]", "value": 87, "unit": "%"}, {"measurement": "remaining binding at 1 µM", "setting": "[25]", "value": 94, "unit": "%"}, {"measurement": "remaining binding at 1 µM", "setting": "[26]", "value": 100, "unit": "%"}, {"measurement": "remaining binding at 1 µM", "setting": "[27]", "value": 100, "unit": "%"}, {"measurement": "remaining binding at 1 µM", "setting": "[28]", "value": 100, "unit": "%"}]}, {"smiles": "CNC(=O)c1ccc(Nc2ncc(C(F)(F)F)c(NCc3nccnc3N(C)S(C)(=O)=O)n2)cc1", "note": "[defactinib]", "values": [{"measurement": "remaining binding at 1 µM", "setting": "[1]", "value": 3.9, "unit": "%"}, {"measurement": "remaining binding at 1 µM", "setting": "[2]", "value": 50, "unit": "%"}, {"measurement": "remaining binding at 1 µM", "setting": "[3]", "value": 65, "unit": "%"}, {"measurement": "remaining binding at 1 µM", "setting": "[4]", "value": 1, "unit": "%"}, {"measurement": "remaining binding at 1 µM", "setting": "[5]", "value": 12, "unit": "%"}, {"measurement": "remaining binding at 1 µM", "setting": "[6]", "value": 18, "unit": "%"}, {"measurement": "remaining binding at 1 µM", "setting": "[7]", "value": 73, "unit": "%"}, {"measurement": "remaining binding at 1 µM", "setting": "[8]", "value": 100, "unit": "%"}, {"measurement": "remaining binding at 1 µM", "setting": "[9]", "value": 43, "unit": "%"}, {"measurement": "remaining binding at 1 µM", "setting": "[10]", "value": 86, "unit": "%"}, {"measurement": "remaining binding at 1 µM", "setting": "[11]", "value": 64, "unit": "%"}, {"measurement": "remaining binding at 1 µM", "setting": "[12]", "value": 93, "unit": "%"}, {"measurement": "remaining binding at 1 µM", "setting": "[13]", "value": 75, "unit": "%"}, {"measurement": "remaining binding at 1 µM", "setting": "[14]", "value": 9.9, "unit": "%"}, {"measurement": "remaining binding at 1 µM", "setting": "[15]", "value": 0, "unit": "%"}, {"measurement": "remaining binding at 1 µM", "setting": "[16]", "value": 17, "unit": "%"}, {"measurement": "remaining binding at 1 µM", "setting": "[17]", "value": 39, "unit": "%"}, {"measurement": "remaining binding at 1 µM", "setting": "[18]", "value": 6.7, "unit": "%"}, {"measurement": "remaining binding at 1 µM", "setting": "[19]", "value": 41, "unit": "%"}, {"measurement": "remaining binding at 1 µM", "setting": "[20]", "value": 100, "unit": "%"}, {"measurement": "remaining binding at 1 µM", "setting": "[21]", "value": 89, "unit": "%"}, {"measurement": "remaining binding at 1 µM", "setting": "[22]", "value": 100, "unit": "%"}, {"measurement": "remaining binding at 1 µM", "setting": "[23]", "value": 13, "unit": "%"}, {"measurement": "remaining binding at 1 µM", "setting": "[24]", "value": 97, "unit": "%"}, {"measurement": "remaining binding at 1 µM", "setting": "[25]", "value": 28, "unit": "%"}, {"measurement": "remaining binding at 1 µM", "setting": "[26]", "value": 100, "unit": "%"}, {"measurement": "remaining binding at 1 µM", "setting": "[27]", "value": 100, "unit": "%"}, {"measurement": "remaining binding at 1 µM", "setting": "[28]", "value": 32, "unit": "%"}]}]}
